According to PMC12402003 (Frontiers in Nutrition, 2025):

Legend:
P-gp = P-gp (Homo sapiens, UniProt P08183); test: Bidirectional Caco-2 transport with verapamil (P-gp inhibitor); conditions: for ER (efflux rate) / Papp (AP → BL) / Papp (BL → AP): 50 μmol/L, + Ver (verapamil 100 μM); for substrate of P-gp: bidirectional assay with verapamil 100 μM
Experimental: Transport assay: The monolayers were pre-incubated at 37°C for 30–40 min with 5% CO2 in a pre-warmed media, which contained Hanks Balanced Salt solution (HBSS, BioWhittaker), HEPES buffer and D-glucose. For the transport of apical (AP) side to basolateral (BL) side, the media was removed after pre-incubation and 0.5 mL of polyphenols was added to the AP side. 1.5 mL of HBSS were added to the BL side. Then 200 μL of samples were taken from the BL side at 30, 60, 90, 120 and 150 min, respectively. The BA sample volumes removed were therewith replenished with same volumes of the HBSS solution. For the transport of BL to AP, polyphenols were added to BL and samples were taken from AP at a series of time points as above mentioned. The TEER was measured from the beginning to the end of the assay.
Caco-2 cells (1×10^5 cells/well) were cultured in 96-well plates for 24 h until differentiation, with a TEER value exceeding 400 Ω·cm^2. Bidirectional transport experiments from AP to BL or from BL to AP were performed as mentioned in the transport assay. The apparent permeability coefficients, cumulative release and initial concentrations and efflux rates were determined. In brief, the total transport time was set to 150 min. For AP to BL transport, 0.5 mL of polyphenols were added to AP with 1.5 mL of HBSS to the BL side. 200 μL of samples were collected from BL at different time points (30, 60, 90, 120, and 150 min). For BL to AP transport, polyphenols were added to BL and samples were collected from AP as the mentioned above.

Caco-2 cells = test: MTT cell viability assay in Caco-2 cells; type: cell-based, human; conditions: 24 h; for cell viability: 100 μM, compared to control (0 μM); for change in cell vitality: concentrations below 50 μM
Experimental: (§1) Cell culture: […] Subsequently, the supernatant was removed and 200 μL of MTT solution (0.1 mg/mL) was added to each well to incubate for an additional 4 h (200 μL for Caco-2 cells, 100 μL for HepG2 cells, both at a concentration of 0.1 mg/mL). Finally, formazan crystals were completely dissolved in DMSO in a shaker for 10 min and the absorbance was measured at a wavelength of 490 nm using a microplate absorbance reader (FLUOstar Omera, BMG Labtech, Germany). Cell viability was determined using the following equation: Cell viability (%) = (OD sample/OD control) × 100, where OD is the optical density. The absorbance values for drug fractions […], catechin, and […]-catechin) were compared to those of untreated culture (control). Each treatment was set up in triplicate.

HepG2 cells [1] = test: TG and TC content in OA-induced high-fat HepG2 cells; type: cell-based, human; conditions: OA-induced high-fat HepG2 cells, 50 μM, 24 h
Experimental: For high fat HepG2 model: […] Afterwards, cells were harvested and lysed. […] For TG and TC assay: […] The medium was removed and the cells were washed twice with PBS. The levels of triglycerides (TG) and total cholesterol (TC) in the cells were determined according to the instructions of test kits.

Srebp-1c = test: Western blot of Srebp-1c protein in Caco-2/HepG2 co-culture; type: cell-based, human; conditions: OA-induced co-culture, 50 μM, 24 h; compared vs. OA
Experimental: (§2) Cells from the co-culture model were lysed and supernatants were collected. The protein concentrations were determined using the BCA Protein Quantitation Kit. Then electrophoresis of samples was conducted using a SDS-PAGE kit (Beyotime Biotechnology) following the manufacturer’s instructions and transferred to poly-vinylidene difluoride (PVDF) membrane. Next, membranes were incubated in 5% nonfat milk to block non-specific antibody binding for 30 min at room temperature and followed by incubating with primary antibodies and secondary antibodies. Chemiluminescence based-images of the blots were acquired using ImageQuant LAS 500 system (GE, United States). Protein bands were quantified using ImageJ (version 1.53a) software. The changes in expression levels of these proteins detected finally are used to evaluate the sample’s effect on lipid metabolism.

HepG2 cells [2] = test: MTT cell viability assay in HepG2 cells; type: cell-based, human; conditions: 24 h; for effect on cell viability: 50 μM; for cytotoxicity: 100 μM
Experimental: as §1

Fabp4 = test: Western blot of Fabp4 protein in Caco-2/HepG2 co-culture; type: cell-based, human; conditions: OA-induced co-culture, 50 μM, 24 h; compared vs. OA
Experimental: as §2

Fasn = test: Western blot of Fasn protein in Caco-2/HepG2 co-culture; type: cell-based, human; conditions: OA-induced co-culture, 50 μM, 24 h; compared vs. OA
Experimental: as §2

Sequence of P-gp (P08183 whole entry): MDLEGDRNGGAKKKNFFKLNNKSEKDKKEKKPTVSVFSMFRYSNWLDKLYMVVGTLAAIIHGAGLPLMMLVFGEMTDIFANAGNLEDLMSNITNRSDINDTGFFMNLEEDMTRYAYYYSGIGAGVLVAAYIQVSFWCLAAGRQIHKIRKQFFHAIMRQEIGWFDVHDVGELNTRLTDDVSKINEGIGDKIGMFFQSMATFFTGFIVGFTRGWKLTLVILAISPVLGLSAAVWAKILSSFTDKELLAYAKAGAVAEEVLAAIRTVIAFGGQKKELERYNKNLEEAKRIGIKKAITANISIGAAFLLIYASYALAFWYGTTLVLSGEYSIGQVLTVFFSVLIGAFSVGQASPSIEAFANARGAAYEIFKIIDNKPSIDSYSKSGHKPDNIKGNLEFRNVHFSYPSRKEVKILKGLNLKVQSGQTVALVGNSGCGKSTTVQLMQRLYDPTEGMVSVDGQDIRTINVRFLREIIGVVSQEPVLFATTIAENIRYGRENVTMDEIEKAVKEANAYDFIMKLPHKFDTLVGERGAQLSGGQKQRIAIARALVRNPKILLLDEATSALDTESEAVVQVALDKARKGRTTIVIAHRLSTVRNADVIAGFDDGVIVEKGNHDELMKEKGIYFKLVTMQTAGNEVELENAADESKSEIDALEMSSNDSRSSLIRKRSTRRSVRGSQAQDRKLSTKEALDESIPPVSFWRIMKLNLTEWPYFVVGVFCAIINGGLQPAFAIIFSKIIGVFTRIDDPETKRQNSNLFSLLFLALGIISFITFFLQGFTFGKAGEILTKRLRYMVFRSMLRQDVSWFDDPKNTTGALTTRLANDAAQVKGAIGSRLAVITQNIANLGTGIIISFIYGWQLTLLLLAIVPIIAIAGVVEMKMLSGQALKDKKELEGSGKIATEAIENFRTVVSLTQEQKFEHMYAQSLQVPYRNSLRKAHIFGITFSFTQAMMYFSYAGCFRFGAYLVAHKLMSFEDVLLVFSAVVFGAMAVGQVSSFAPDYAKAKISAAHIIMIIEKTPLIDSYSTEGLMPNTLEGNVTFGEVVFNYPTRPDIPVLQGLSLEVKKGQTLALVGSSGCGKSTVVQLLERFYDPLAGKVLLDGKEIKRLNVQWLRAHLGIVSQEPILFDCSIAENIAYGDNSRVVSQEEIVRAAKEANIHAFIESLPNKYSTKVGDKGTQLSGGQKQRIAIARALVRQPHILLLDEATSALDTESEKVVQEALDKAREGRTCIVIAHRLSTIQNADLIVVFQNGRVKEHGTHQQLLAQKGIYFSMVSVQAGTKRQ

SMILES | ER (efflux rate) (P-gp; 30 min) | Papp (AP → BL) (P-gp; 30 min) | Papp (BL → AP) (P-gp; 30 min) | ER (efflux rate) (P-gp; 60 min) | Papp (AP → BL) (P-gp; 60 min) | Papp (BL → AP) (P-gp; 60 min) | ER (efflux rate) (P-gp; 90 min) | Papp (AP → BL) (P-gp; 90 min) | Papp (BL → AP) (P-gp; 90 min) | ER (efflux rate) (P-gp; 120 min) | Papp (AP → BL) (P-gp; 120 min) | Papp (BL → AP) (P-gp; 120 min) | ER (efflux rate) (P-gp; 150 min) | Papp (AP → BL) (P-gp; 150 min) | Papp (BL → AP) (P-gp; 150 min) | substrate of P-gp (P-gp) | cell viability (Caco-2 cells) [%] | change in cell vitality (Caco-2 cells) | effect on cell viability (HepG2 cells [2]) | cytotoxicity (HepG2 cells [2]) | further results
OC[C@H]1O[C@@H](Oc2cc3c(O)cc(O)cc3[o+]c2-c2ccc(O)c(O)c2)[C@H](O)[C@@H](O)[C@@H]1O [C3G, Cyanidin-3-O-glucoside] | 0.48 | 11.4 ± 0.49 ×10^−5 cm /s | 5.49 ± 0.66 ×10^−5 cm /s | 0.54 | 5.73 ± 0.21 ×10^−5 cm /s | 3.07 ± 0.2 ×10^−5 cm /s | 0.51 | 4.05 ± 0.12 ×10^−5 cm /s | 2.09 ± 0.03 ×10^−5 cm /s | 0.54 | 3.16 ± 0.17 ×10^−5 cm /s | 1.71 ± 0.15 ×10^−5 cm /s | 0.51 | 2.47 ± 0.14 ×10^−5 cm /s | 1.21 ± 0.28 ×10^−5 cm /s | not substrates | 80 | No significant changes | no significant effects | comparable cytotoxicity | reduction of TG content (HepG2 cells [1]): 21%; Srebp-1c protein expression level (densitometry) (Srebp-1c): 1.32; Fabp4 protein expression level (densitometry) (Fabp4): 1.23
O.Oc1cc(O)c2c(c1)O[C@H](c1ccc(O)c(O)c1)[C@@H](O)C2 [catechin] | 0.57 | 11.2 ± 0.23 ×10^−5 cm /s | 6.38 ± 0.37 ×10^−5 cm /s | 0.57 | 6.02 ± 0.37 ×10^−5 cm /s | 3.45 ± 0.29 ×10^−5 cm /s | 0.51 | 3.98 ± 0.31 ×10^−5 cm /s | 2.05 ± 0.56 ×10^−5 cm /s | 0.52 | 3.25 ± 0.52 ×10^−5 cm /s | 1.68 ± 0.29 ×10^−5 cm /s | 0.52 | 2.54 ± 0.17 ×10^−5 cm /s | 1.32 ± 0.34 ×10^−5 cm /s | not substrates | 80 | No significant changes | no significant effects | comparable cytotoxicity | Fasn protein expression level (densitometry) (Fasn): 1.11; Fabp4 protein expression level (densitometry) (Fabp4): 1.23
